Drawing on PubChem BioAssay (NCI), this text covers TGI and GI50 for 12 molecules.

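The compound was tested at five concentrations on cells cultured in 96-well plates, with a 48-hour exposure period. Abbreviation: GI50, concentration required for 50% inhibition of growth. TGI is the concentration that stops growth completely.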 Where a SMILES comes first, the peptide text is derived from it. The star is where a group is joined. Ethyl(2-NMe3+) = C[N+](C)(C)CC*; Boc = CC(C)(C)OC(=O)*

Assay in all cases: NCI-60 cell line screen, 48 h
The test system of assay [1] is 786-0 renal.
In assay [2] the test system is A498 renal.
Assay [3] deals with A549 NSCLC.
The subject of assay [4] is COLO 205 colon.
The subject of assay [5] is EKVX NSCLC.
For assay [6], the system named is HL-60(TB) leukemia.
In assay [7] the test system is HOP-62 NSCLC.
The subject of assay [8] is HOP-92 NSCLC.
Assay [9] deals with KM12 colon.
The test system of assay [10] is NCI-H522 lung.
The subject of assay [11] is OVCAR-5 ovarian.
The test system of assay [12] is OVCAR-8 ovarian.
In assay [13] the test system is PC-3 prostate.
For assay [14], the system named is RPMI-8226 leukemia.
Assay [15] deals with RXF 393 renal.
Assay [16] deals with SK-MEL-5 melanoma.
Assay [17] has as its system SN12C renal.
For assay [18], the system named is UO-31 renal.

Turning to `CCOc1cc2c(cc1O)CC[C@@H]1[C@@H]2CC[C@]2(C)C(N)CC[C@@H]12` (stereo partly drawn), the TGI in assay [1] was 13.8 µM; in [2], 18.7 µM; in [3], 16.1 µM; in [4] it was 17.3 µM; in [5], 20.9 µM; in assay [6], over 25.1 µM. The TGI in assay [7] worked out at 40.4 µM; in [8] it was 27 µM; in [9] it was 8.03 µM; in assay [10] it was 11.9 µM; in assay [11] it was 36.9 µM; in assay [12], 11.2 µM. Also, the TGI is 13.7 µM in assay [13]; 10 µM in [14]; 7.33 µM in assay [15]; 16.7 µM in assay [16]; 20.5 µM in assay [17]; 16.2 µM in assay [18].

For the molecule `CN(C)CCCNc1c(C#N)[n+]([O-])c2cc(Cl)ccc2[n+]1[O-]`, the TGI in assay [1] is over 100 µM; in assay [2], over 52.4 µM; in assay [3] it was 31.5 µM; in assay [4] it was 14.6 µM; in assay [5], 22.5 µM; in assay [6], 30.3 µM. Moreover, the TGI was over 48.7 µM in [7]; 25.5 µM in [8]; 26.9 µM in assay [9]; 14.1 µM in assay [10]; over 100 µM in assay [11]; over 51.3 µM in assay [12]. The TGI in assay [13] is over 41.3 µM; in assay [14], 26.4 µM; in [15], over 100 µM; in assay [16] it was 10.9 µM; in [17], 53.3 µM; in assay [18] it was over 46.3 µM.

In the case of `OC1[C@H](O)CN(OCc2ccccc2)C[C@@H]1O` (stereo partly drawn), the TGI in assay [1], in assay [2], in assay [3], in [4], in [5] and in [6] was over 100 µM throughout. Besides, the TGI in assay [7], in [8], in assay [9], in assay [10], in [11] and in [12] was over 100 µM each time. Further, the TGI in assay [13], in assay [14], in assay [15], in [16], in assay [17] and in [18] was over 100 µM in each case.

For the molecule `COc1cccc(N2C(=O)/C(=C\c3ccccc3)SC2c2cc(OC)c(OC)c(OC)c2)c1` (stereo not drawn), the TGI in assay [1] is over 100 µM; in [2], 67.7 µM; in assay [3], over 100 µM; in assay [4], over 100 µM; in [5], over 100 µM; in [6], over 100 µM. The TGI in assay [7], in [8], in assay [9], in [10], in assay [11] and in assay [12] was over 100 µM throughout. The TGI in assay [13], in [14], in assay [16], in [17] and in assay [18] was over 100 µM throughout.

Consider `Nc1[nH]c(=S)c2c(N)n[nH]c2c1C(=O)Nc1ccccc1`, for which the TGI in [1], in assay [2], in assay [3], in assay [4], in [5] and in [6] was over 100 µM each time. For the same molecule, the TGI in assay [8], in [9], in assay [10], in assay [11], in [12] and in assay [13] was over 100 µM each time. Besides, the TGI in [14], in [15], in assay [16], in [17] and in [18] was over 100 µM in each case.

As to `O=C(Cc1ccc(Cl)cc1)Nc1ccc2oc(-c3ccccc3)nc2c1`, the TGI in assay [1], in assay [2], in assay [3], in [4], in assay [5] and in assay [6] was over 100 µM throughout. Also, the TGI in assay [7], in [8], in assay [9], in assay [10], in assay [11] and in [12] was over 100 µM in each case. For the same molecule, the TGI in assay [13], in assay [14], in assay [15], in assay [16] and in [17] was over 100 µM in each case.

In the case of `Cc1cc2nc(N3C(=O)/C(=C/c4ccccc4S)N=C3c3ccccc3)sc2cc1C`, the TGI in [1] is 60.5 µM; in assay [2], 55.1 µM; in assay [3] it was over 100 µM; in [4] it was 98.5 µM; in assay [5] it was over 100 µM; in assay [6] it was 82 µM. Further, the TGI in assay [7] is over 100 µM; in assay [8], 82.8 µM; in assay [9] it was over 100 µM; in assay [11] it was over 100 µM; in [12], over 100 µM; in assay [13], 58.1 µM. Further, the TGI in [14] was over 100 µM; in assay [15], 94.4 µM; in assay [16], over 100 µM; in assay [17], 82.6 µM; in [18], over 100 µM.

`CC(=O)c1cccc(Nc2nc3ccc(Cl)cc3c3[nH]c4ccccc4c23)c1`: the TGI in [1] is 11.3 µM; in [2] it was 7.26 µM; in [3], 8.45 µM; in assay [4] it was 12.8 µM; in [5], 14.9 µM; in assay [6] it was over 100 µM. Moreover, the TGI in assay [7] was 15.4 µM; in assay [8], 13.4 µM; in assay [9], over 100 µM; in assay [10], 16.4 µM; in [11], 61.6 µM; in assay [12] it was 32.7 µM. In addition, the TGI is 30.9 µM in assay [13]; over 100 µM in [14]; 17 µM in [16]; over 90.8 µM in assay [17]; 41.9 µM in assay [18]. In addition, the values for the GI50 in [2] and in assay [6] were 2.15 µM and over 100 µM, respectively.

In the case of `CC(NC(=O)C(Cc1ccc(OCC[N+](C)(C)C)cc1)NC(=O)OC(C)(C)C)C(=O)NC(Cc1ccccc1)C(=O)NCC(N)=O` (stereo not drawn) (Boc-Y(Ethyl(2-NMe3+))AFG-NH2; configuration not given here), the TGI in assay [1] was 44.6 µM; in assay [2], 33.3 µM; in assay [3], over 100 µM; in assay [4], over 100 µM; in [6], over 100 µM; in assay [7] it was 14.5 µM. Besides, the TGI in [8] was 29.6 µM; in [9], over 100 µM; in [10], over 100 µM; in [11] it was 59.5 µM; in assay [12], 55.3 µM; in [13], over 100 µM. The TGI in assay [14] was over 100 µM; in assay [15], 24 µM; in assay [16], over 100 µM; in [17], over 100 µM; in assay [18] it was over 100 µM.

On to `Cn1c(Cl)cn2c3nc4ccccc4nc3c(=O)c(C#N)c12`, for which the TGI is over 100 µM in [1]; 98.8 µM in [2]; over 100 µM in assay [3]; over 100 µM in [4]; over 100 µM in assay [5]; over 100 µM in assay [6]. The TGI in [8], in [9], in assay [10], in [11], in assay [12] and in assay [13] was over 100 µM each time. For the same molecule, the TGI in assay [14], in assay [15], in assay [16], in assay [17] and in assay [18] was over 100 µM each time.

For the molecule `COc1ccc(NC(=O)/C(=N/NC(N)=S)C2C(=O)NC(=S)NC2=O)c(OC)c1`, the TGI in assay [1], in assay [2], in assay [3], in assay [4], in assay [5] and in assay [6] was over 100 µM each time. The TGI in assay [8], in assay [9], in assay [10], in assay [11], in [12] and in [13] was over 100 µM throughout. Besides, the TGI in assay [14], in assay [16], in assay [17] and in assay [18] was over 100 µM each time.

In the case of `NC(=S)N/N=C1/CCCC2CCCC[C@@H]12` (stereo partly drawn), the TGI in [1], in assay [2], in [3], in [4], in assay [5] and in assay [6] was over 100 µM throughout. Further, the TGI in assay [7], in assay [8], in assay [9], in assay [10], in assay [11] and in [12] was over 100 µM in each case. In addition, the TGI in assay [13], in assay [14], in assay [15], in [16] and in assay [18] was over 100 µM each time.
